The source of these data is PMC2567432 (PLoS ONE, 2008).

Assay [1] deals with breast cancer MDA-MB-231 cells. Kind of assay: Cell proliferation WST-1 assay, MDA-MB-231. The class given is cell-based, human. The conditions noted are these: MDA-MB-231, 24 h. The procedure: (§1) Figure 3 Growth inhibition of different tumor cell lines by polyphenols. […] Following 24-h incubation, cell proliferation was evaluated using the WST-1 assay.
(§2) Tumor cells were cultured in RPMI medium containing 10% fetal calf serum (RPMI-FCS) (PC-3, JIMT-1, MDA-MD 231) or in DMEM-FCS (astrocytoma 1321N1 cells) containing penicillin/streptomycin (100 U penicillin/ml; 100 µg streptomycin/ml) at 37°C/5% CO2. Cytosolic protein extracts of tumor cells were prepared using extraction buffer composed of 25 mM Tris, 2 mM EDTA, 10% Glycerol, 1% Triton ×100, 2 mM DTT, 1mM PMSF, pH. 7.0 containing 0.3% protease inhibitor cocktail. Protein content was determined according to Bradford. Specific activity of enzymes analyzed in cell extracts was expressed as U/mg protein.
(§3) Cell proliferation/vitality of tumor cells (96-well plates; 5000 cells/well) and primary human hepatocytes (24-well plates; 0.25×10^6 cells/well) was assayed using the WST-1 assay according to manufacturer's instructions. Trypan blue exclusion was performed by staining cells with 0.4% aqueous trypan blue solution according to the manufacturer's instructions.
(Tetrazolium dyes change colour on reduction, which living cells bring about.)

For the next assay, the system named is astrocytoma 1321N1 cells. Kind of assay: D-lactate release into medium. The class given is cell-based. As to conditions: 1321N1, 20 µM curcumin, 24 h; control 34.6±6 µM. The method, then:
Cells were harvested and the specific activity of Glo1 and LDH was determined in the cytosolic extract. (B) Semi-quantitative analysis of protein content as performed by Western blot using specific antibodies against β-actin and Glo1. The blot was developed by chemoluminescense detection. […] Data represent the mean±S.D. of independent experiments (n = 6).
The determination of D-lactate and L-lactate in supernatants of astrocytoma 1321N1 cells was performed by an enzymatic method based on the oxidation of L-lactate and D-lactate to pyruvate by NAD in the presence of L-LDH or D-LDH[63].

In assay [2] the test system is breast cancer JIMT-1 cells. Kind of assay: Cell proliferation WST-1 assay, JIMT-1. The class given is cell-based, human. The method, then:
as §1, §2, §3

One may read the inhibition as the percentage by which the read-out fell short of the control.

Take `COc1cc(C=CC(=O)CC(=O)C=Cc2ccc(O)c(OC)c2)ccc1O` [curcumin, 1,7-bis(4-hydroxy-3-methoxyphenyl)-1,6-heptadiene-3,5-dione]: the “concentration giving strong anti-proliferative effects” value in assay [1] was “above 50 µM”; in assay [2] (JIMT-1, 24 h, WST-1), “above 50 µM”. Besides, in the assay with astrocytoma 1321N1 cells, the “D-lactate concentration in the medium” value is 22 ± 1.9 µM. This compound registered an inhibition at 50 µM in assay [2] (Homo sapiens, JIMT-1, 50 µM, 24 h) of approximately 30%.
